The values that follow come from patent US20200361871A1 (Enterprise Therapeutics Ltd., priority 2018, published 2020).

This experiment addresses human TMEM16A (TMEM16Aabc variant) (Homo sapiens, UniProt Q5XXA6, DEL476-501, form not given). In words: Automated whole-cell patch clamp (Qpatch) TMEM16A potentiator assay in FRT cells stably expressing human TMEM16A. Format: cell-based. Particulars: for % Potentiation @ 3.33 μM Avg: 3.33 μM solution of test compound, percentage increase of baseline TMEM16A current; for EC50: calculated EC50, Qpatch TMEM16A current at +70 mV. The gist of the method:
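Potentiation was read as the rise in peak +70 mV current over baseline (%), from cumulative 5-min additions of compound. Recordings used whole-cell automated patch of FRT cells stably carrying human TMEM16Aabc, with pipette Ca2+ buffered to give ~20% maximal current. EC50 and efficacy came from concentration-response fits.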

Each structure is given as a SMILES string.

human TMEM16A (TMEM16Aabc variant), sequence (Q5XXA6 with tags, fused parts or gaps DEL476-501): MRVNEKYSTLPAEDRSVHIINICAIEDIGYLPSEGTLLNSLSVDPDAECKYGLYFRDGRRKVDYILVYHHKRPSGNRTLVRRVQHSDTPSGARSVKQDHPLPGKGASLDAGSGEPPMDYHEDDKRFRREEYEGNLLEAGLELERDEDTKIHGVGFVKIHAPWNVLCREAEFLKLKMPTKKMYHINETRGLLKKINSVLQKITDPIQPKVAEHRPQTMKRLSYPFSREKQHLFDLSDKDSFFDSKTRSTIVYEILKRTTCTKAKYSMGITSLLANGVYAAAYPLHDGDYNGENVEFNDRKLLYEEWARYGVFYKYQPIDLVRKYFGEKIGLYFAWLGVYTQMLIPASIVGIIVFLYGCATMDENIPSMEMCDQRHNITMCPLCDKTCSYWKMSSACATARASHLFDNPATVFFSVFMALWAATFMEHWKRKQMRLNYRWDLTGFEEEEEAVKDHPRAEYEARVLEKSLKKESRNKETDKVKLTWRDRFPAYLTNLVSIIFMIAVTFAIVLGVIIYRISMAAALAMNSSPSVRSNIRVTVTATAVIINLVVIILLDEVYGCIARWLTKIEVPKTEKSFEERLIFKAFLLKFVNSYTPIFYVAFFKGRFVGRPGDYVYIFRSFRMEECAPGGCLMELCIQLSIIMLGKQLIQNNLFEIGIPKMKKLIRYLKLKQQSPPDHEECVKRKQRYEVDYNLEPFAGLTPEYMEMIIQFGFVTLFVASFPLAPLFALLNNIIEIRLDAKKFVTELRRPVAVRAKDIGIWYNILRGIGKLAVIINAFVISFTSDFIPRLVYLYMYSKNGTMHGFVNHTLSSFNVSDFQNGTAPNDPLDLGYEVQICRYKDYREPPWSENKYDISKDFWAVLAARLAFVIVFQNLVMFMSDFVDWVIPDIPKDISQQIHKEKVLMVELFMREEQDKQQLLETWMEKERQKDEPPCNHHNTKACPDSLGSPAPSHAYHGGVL

As usually defined, the EC50 is the concentration at which the effect is half-maximal. As for `N#CC1(NC(=O)c2cc(NC(=O)Cc3cc(Cl)ccc3O)ccn2)COC1` [Example 47.3, 4-[[2-(5-Chloro-2-hydroxy-phenyl)acetyl]amino]-N-(3-cyanooxetan-3-yl)pyridine-2-carboxamide], the “% Potentiation @ 3.33 μM Avg” value came out at 237% and the EC50 was 350 nM. The corresponding values for `CC1(NC(=O)c2cc(NC(=O)Cc3cc(F)ccc3O)ccn2)CCC1` [Example 48, 4-[[2-(5-Fluoro-2-hydroxy-phenyl)acetyl]amino]-N-(1-methylcyclobutyl)pyridine-2-carboxamide] are 195% and 100 nM. For `N#CC1(NC(=O)c2cc(NC(=O)Cc3cc(F)ccc3O)ccn2)CCOCC1` [Example 48.1, N-(4-Cyanotetrahydropyran-4-yl)-4-[[2-(5-fluoro-2-hydroxy-phenyl)acetyl]amino] pyridine-2-carboxamide] the same measures were 185% and 420 nM. For `CC(C)(C)NC(=O)CC(C)(C)NC(=O)c1cc(NC(=O)Cc2cc(Cl)ccc2O)ccn1` [Example 49, N-[3-(tert-Butylamino)-1,1-dimethyl-3-oxo-propyl]-4-[[2-(5-chloro-2-hydroxy-phenyl)acetyl]amino]pyridine-2-carboxamide] the same measures were 226% and 680 nM. On to `CC(C)(CCNS(C)(=O)=O)NC(=O)c1cc(NC(=O)Cc2cc(Cl)ccc2O)ccn1` [Example 50, 4-[[2-(5-Chloro-2-hydroxy-phenyl)acetyl]amino]-N-[3-(methanesulfonamido)-1,1-dimethyl-propyl]pyridine-2-carboxamide], for which the “% Potentiation @ 3.33 μM Avg” value came out at 65%. The same measure, in the same setting: the value for `CC(=O)NCCC(C)(C)NC(=O)c1cc(NC(=O)Cc2cc(Cl)ccc2O)ccn1` [Example 51, N-(3-Acetamido-1,1-dimethyl-propyl)-4-[[2-(5-chloro-2-hydroxy-phenyl)acetyl]amino]pyridine-2-carboxamide] was 54%.

Turning to `O=C(Cc1cc(Cl)ccc1O)Nc1ccnc(C(=O)NC2(CO)CCOCC2)c1` [Example 53, 4-[[2-(5-Chloro-2-hydroxy-phenyl)acetyl]amino]-N-[4-(hydroxymethyl)tetrahydropyran-4-yl]pyridine-2-carboxamide], the “% Potentiation @ 3.33 μM Avg” value was 184% and the EC50 is 390 nM. As to `CC(O)c1cccc(CC(=O)Nc2ccnc(C(=O)NC(C)(C)C)c2)c1` (stereo not drawn) [Example 54, N-tert-Butyl-4-[[2-[3-(1-hydroxyethyl)phenyl]acetyl]amino]pyridine-2-carboxamide], the “% Potentiation @ 3.33 μM Avg” value was found to be 62%. With `CC(C)(C)NC(=O)c1cc(NC(=O)Cc2cc(Cl)ccc2O)c(Cl)cn1` [Example 55, N-tert-Butyl-5-chloro-4-[[2-(5-chloro-2-hydroxy-phenyl)acetyl]amino]pyridine-2-carboxamide], the “% Potentiation @ 3.33 μM Avg” value was determined as 114%. For the compound `COc1ccc(COc2ccc(Cl)cc2CC(=O)Nc2ccnc(C(=O)NC(C)(C)C)c2)cc1` [Example 56, N-tert-Butyl-4-[[2-[5-chloro-2-[(4-methoxyphenyl)methoxy]phenyl]acetyl]amino]pyridine-2-carboxamide], the “% Potentiation @ 3.33 μM Avg” value is on record as 76%. As for `CC(C)(C)NC(=O)c1cc(NC(=O)Cc2ccccc2C2CC2)ccn1` [Example 58, N-tert-Butyl-4-[[2-(2-cyclopropylphenyl)acetyl]amino]pyridine-2-carboxamide], the “% Potentiation @ 3.33 μM Avg” value stood at 217%. Still for that read-out and setting: the value for `CC(C)(C)NC(=O)c1cc(NC(=O)Cc2cc(Cl)cc(Br)c2O)ccn1` [Example 59, 4-[[2-(3-Bromo-5-chloro-2-hydroxy-phenyl)acetyl]amino]-N-tert-butyl-pyridine-2-carboxamide] was 175%.

On to `O=C(Cc1ccccc1F)Nc1ccnc(C(=O)NC23CCC(F)(C2)C3)c1` [Example 60, N-(4-Fluoro-1-bicyclo[2.1.1]hexanyl)-4-[[2-(2-fluorophenyl)acetyl]amino]pyridine-2-carboxamide], for which the “% Potentiation @ 3.33 μM Avg” value was found to be 126% and the EC50 was 350 nM. As for `CC(C#N)(CO)NC(=O)c1cc(NC(=O)Cc2ccccc2F)ccn1` (stereo not drawn) [Example 60.1, N-(1-Cyano-2-hydroxy-1-methyl-ethyl)-4-[[2-(2-fluorophenyl)acetyl]amino]pyridine-2-carboxamide], the “% Potentiation @ 3.33 μM Avg” value was determined as 60%.

With `C#CC(C)(C)NC(=O)c1cc(NC(=O)Cc2ccccc2F)ccn1` [Example 60.2, N-(1,1-Dimethylprop-2-ynyl)-4-[[2-(2-fluorophenyl)acetyl]amino]pyridine-2-carboxamide], the “% Potentiation @ 3.33 μM Avg” value turned out to be 169% and the EC50 is 200 nM.

Consider `CC(C)c1cc(Cl)cc(CC(=O)Nc2ccnc(C(=O)NC(C)(C)C)c2)c1O` [Example 61, N-tert-Butyl-4-[[2-(5-chloro-2-hydroxy-3-isopropyl-phenyl)acetyl]amino]pyridine-2-carboxamide], for which the “% Potentiation @ 3.33 μM Avg” value is recorded as 85%. With `COC(C)c1cc(Cl)cc(CC(=O)Nc2ccnc(C(=O)NC(C)(C)C)c2)c1O` (stereo not drawn) [Example 62, N-tert-Butyl-4-[[2-[5-chloro-2-hydroxy-3-(1-methoxyethyl)phenyl]acetyl]amino] pyridine-2-carboxamide], the “% Potentiation @ 3.33 μM Avg” value worked out at 99%.

As for `O=C(Cc1ccc2ncccc2c1)Nc1ccnc(C(=O)NC2CCOCC2)c1` [Example 63, 4-[[2-(6-Quinolyl)acetyl]amino]-N-tetrahydropyran-4-yl-pyridine-2-carboxamide], the “% Potentiation @ 3.33 μM Avg” value is listed as 37%. On the same count and under the same terms, the value for `CC(C)(C)NC(=O)c1cc(NC(=O)NCc2ccccc2)ccn1` [Example 64, 4-(Benzylcarbamoylamino)-N-tert-butyl-pyridine-2-carboxamide] was 55%; that for `CC(C)(C)NC(=O)c1cc(NC(=O)NCC2CCCCC2)ccn1` [Example 64.1, N-tert-Butyl-4-(cyclohexylmethylcarbamoylamino)pyridine-2-carboxamide] was 78%; that for `CC(C)(C)NC(=O)c1cc(NC(=O)NCCc2ccccc2)ccn1` [Example 64.2, N-tert-Butyl-4-(2-phenylethylcarbamoylamino)pyridine-2-carboxamide] was 61%. Same read-out and setting: the value for `C[C@@H](NC(=O)Nc1ccnc(C(=O)NC(C)(C)C)c1)c1ccccc1` [Example 64.3, N-tert-Butyl-4-[[(1R)-1-phenylethyl]carbamoylamino]pyridine-2-carboxamide] was 70%; that for `C[C@H](NC(=O)Nc1ccnc(C(=O)NC(C)(C)C)c1)c1ccccc1` [Example 64.4, N-tert-Butyl-4-[[(1S)-1-phenylethyl]carbamoylamino]pyridine-2-carboxamide] was 2%. As for `CC(C)(C)NC(=O)c1cc(NC(=O)NCc2ccccc2Cl)ccn1` [Example 64.5, N-tert-Butyl-4-[(2-chlorophenyl)methylcarbamoylamino]pyridine-2-carboxamide], the “% Potentiation @ 3.33 μM Avg” value came to 143% and the EC50 is 450 nM. Take `CC(C)(C)NC(=O)c1cc(NC(=O)Nc2c[nH]c3ccccc23)ccn1` [Example 64.6, N-tert-butyl-4-(1H-indol-3-ylcarbamoylamino)pyridine-2-carboxamide]: the “% Potentiation @ 3.33 μM Avg” value was 0%. Same read-out and setting: the value for `CC(C)(C)NC(=O)c1cc(NC(=O)NCc2cccc(Cl)c2)ccn1` [Example 64.7, N-tert-Butyl-4-[(3-chlorophenyl)methylcarbamoylamino]pyridine-2-carboxamide] was 83%; that for `CC(C)(C)NC(=O)c1cc(NC(=O)NCc2ccc(Cl)cc2)ccn1` [Example 64.8, N-tert-butyl-4-[(4-chlorophenyl)methylcarbamoylamino]pyridine-2-carboxamide] was 97%. Still for that read-out and setting: the value for `CC(C)(C)NC(=O)c1cc(NC(=O)Nc2ccccc2O)ccn1` [Example 65, N-tert-Butyl-4-[(2-hydroxyphenyl)carbamoylamino]pyridine-2-carboxamide] was 55%. On to `COc1ccccc1CNC(=O)Nc1ccnc(C(=O)NC(C)(C)C)c1` [Example 65.1, N-tert-Butyl-4-[(2-methoxyphenyl)methylcarbamoylamino]pyridine-2-carboxamide], for which the “% Potentiation @ 3.33 μM Avg” value was found to be 75% and the EC50 is 470 nM. With `CC(C)(C)NC(=O)c1cc(NC(=O)NCc2ccccc2O)ccn1` [Example 65.2, N-tert-Butyl-4-[(2-hydroxyphenyl)methylcarbamoylamino]pyridine-2-carboxamide], the “% Potentiation @ 3.33 μM Avg” value was found to be 73% and the 50% effective concentration (EC50) was 480 nM.

Turning to `CC(C)(C)NC(=O)c1cc(NC(=O)NCc2cccc(O)c2)ccn1` [Example 65.3, N-tert-Butyl-4-[(3-hydroxyphenyl)methylcarbamoylamino]pyridine-2-carboxamide], the “% Potentiation @ 3.33 μM Avg” value was 33%. Regarding `CC(C)(C)NC(=O)c1cc(NC(=O)NCc2ccc(O)cc2)ccn1` [Example 65.4, N-tert-Butyl-4-[(4-hydroxyphenyl)methylcarbamoylamino]pyridine-2-carboxamide], the “% Potentiation @ 3.33 μM Avg” value amounted to 10%. For the compound `CC(O)c1ccc(O)c(CC(=O)Nc2ccnc(C(=O)NC(C)(C)C)c2)c1` (stereo not drawn) [Example 66, N-tert-Butyl-4-[[2-[2-hydroxy-5-(1-hydroxyethyl)phenyl]acetyl]amino]pyridine-2-carboxamide], the “% Potentiation @ 3.33 μM Avg” value amounted to 130%.

For the compound `CC(NCC(F)(F)F)c1ccc(O)c(CC(=O)Nc2ccnc(C(=O)NC(C)(C)C)c2)c1` (stereo not drawn) [Example 67, N-tert-Butyl-4-[[2-[2-hydroxy-5-[1-(2,2,2-trifluoroethylamino)ethyl]phenyl]acetyl]amino]pyridine-2-carboxamide], the “% Potentiation @ 3.33 μM Avg” value is 158% and the EC50 was 1100 nM.
